Experiment: Dissolution test of samples filled in hard gelatin capsules (Ph. Eur. Type 2 device)
Type: physicochemical
Conditions: Example 2 samples (pure silybin/silydianin), tested as described for Example 1 (capsule, pH 7.5, 100 rpm)
Protocol: For this purpose 100 mg of each Samples were filled in hard gelatin capsules (number 00). Individual capsules underwent the test on the device as per the Ph. Eur. Type 2 in 2 litres of the dissolution medium pH 7.5 and under 100 revolutions per minute.

Dissolution Values, 30 minutes (after 30 minutes): 4.6%
Dissolution Values, 60 minutes (after 60 minutes): 4.5%
Compound: COc1cc(C2Oc3cc([C@H]4Oc5cc(O)cc(O)c5C(=O)[C@@H]4O)ccc3OC2CO)ccc1O (some centres unmarked) [Silybin, silybin]

From US7384919B2, “Increased solubility flavanolignan preparations” (IVAX Pharmaceuticals s.r.o., priority 2001, dated 2008)
